According to ChEMBL document CHEMBL3046389, “Synthesis and biological evaluation of novel hydroquinone dimethyl ethers as potential anticancer and antimicrobial agents” (2013):
Converted amounts (≈) assume the structure as drawn.

Assays:
Assay type in all cases: functional
[1] = test system: Escherichia coli; test: Antimicrobial activity against Escherichia coli ATCC 11775 after 48 hr by two-fold serial broth dilution method; conditions: ATCC 11775, 48 h
[2] = test system: Candida albicans; test: Antimicrobial activity against Candida albicans DSM 70014 after 48 hr by two-fold serial broth dilution method; conditions: DSM 70014, 48 h
[3] = test system: Pseudomonas aeruginosa; test: Ratio of ampicillin MIC to compound MIC for Pseudomonas aeruginosa ATCC 10145 after 48 hr by two-fold serial broth dilution method
[4] = test system: Pseudomonas aeruginosa; test: Antimicrobial activity against Pseudomonas aeruginosa ATCC 10145 after 48 hr by two-fold serial broth dilution method; conditions: ATCC 10145, 48 h
[5] = test system: Bacillus subtilis; test: Antimicrobial activity against Bacillus subtilis ATCC 6633 after 48 hr by two-fold serial broth dilution method; conditions: ATCC 6633, 48 h
[6] = test system: Staphylococcus aureus; test: Antimicrobial activity against Staphylococcus aureus DSM 1104 after 48 hr by two-fold serial broth dilution method; conditions: DSM 1104, 48 h
[7] = test system: SR; test: Growth inhibition of Homo sapiens (human) SR cells at 10 uM after 48 hr by SRB assay; conditions: read-out: GI

| SMILES | MBC [1] [µg/mL] | MIC [1] [µg/mL] | MFC [2] [µg/mL] | MIC [2] [µg/mL] | Ratio [3] | MBC [4] [µg/mL] | MIC [4] [µg/mL] | MBC [5] [µg/mL] | MIC [5] [µg/mL] | MBC [6] [µg/mL] | MIC [6] [µg/mL] | inhibition of growth at 10 µM [7] [%] |
| --- | --- | --- | --- | --- | --- | --- | --- | --- | --- | --- | --- | --- |
| COc1ccc(OC)c(/C=C/c2nnc(SC)n2-c2ccc(C)cc2)c1 | 50 (≈ 136 µM) | 50 (≈ 136 µM) | 50 (≈ 136 µM) | 50 (≈ 136 µM) | 4 | 25 (≈ 68 µM) | 12.5 (≈ 34 µM) | 50 (≈ 136 µM) | 50 (≈ 136 µM) | 50 (≈ 136 µM) | 50 (≈ 136 µM) |  |
| CCSc1nnc(/C=C/c2cc(OC)ccc2OC)n1-c1ccc(C)cc1 | 100 (≈ 262 µM) | 100 (≈ 262 µM) | 100 (≈ 262 µM) | 100 (≈ 262 µM) |  | 100 (≈ 262 µM) | 100 (≈ 262 µM) | 100 (≈ 262 µM) | 50 (≈ 131 µM) | 100 (≈ 262 µM) | 100 (≈ 262 µM) |  |
| COc1ccc(OC)c(/C=C/c2nnc(SCC(=O)c3cc(O)ccc3O)n2-c2ccccc2)c1 | 25 (≈ 51.1 µM) | 12.5 (≈ 25.5 µM) | 50 (≈ 102 µM) | 50 (≈ 102 µM) | 4 | 25 (≈ 51.1 µM) | 12.5 (≈ 25.5 µM) | 50 (≈ 102 µM) | 25 (≈ 51.1 µM) | 50 (≈ 102 µM) | 25 (≈ 51.1 µM) |  |
| COc1ccc(OC)c(/C=C/c2nnc(SCC(=O)c3cc(O)ccc3O)n2-c2ccc(Cl)cc2)c1 | 50 (≈ 95.4 µM) | 25 (≈ 47.7 µM) | 50 (≈ 95.4 µM) | 25 (≈ 47.7 µM) | 4 | 25 (≈ 47.7 µM) | 12.5 (≈ 23.9 µM) | 25 (≈ 47.7 µM) | 12.5 (≈ 23.9 µM) | 50 (≈ 95.4 µM) | 50 (≈ 95.4 µM) |  |
| COc1ccc(OC)c(/C=C/c2nnc(Nc3ccc(C)cc3)o2)c1 | 50 (≈ 148 µM) | 50 (≈ 148 µM) | 100 (≈ 296 µM) | 100 (≈ 296 µM) |  | 50 (≈ 148 µM) | 50 (≈ 148 µM) | 100 (≈ 296 µM) | 100 (≈ 296 µM) | 100 (≈ 296 µM) | 100 (≈ 296 µM) |  |
| COc1ccc(OC)c(/C=C/c2nnc(Nc3ccccc3)s2)c1 | 50 (≈ 147 µM) | 50 (≈ 147 µM) | 50 (≈ 147 µM) | 50 (≈ 147 µM) |  | 100 (≈ 295 µM) | 100 (≈ 295 µM) | 100 (≈ 295 µM) | 100 (≈ 295 µM) | 50 (≈ 147 µM) | 50 (≈ 147 µM) |  |
| COc1ccc(OC)c(/C=C/c2nnc(Nc3ccc(Cl)cc3)s2)c1 | 100 (≈ 267 µM) | 100 (≈ 267 µM) | 50 (≈ 134 µM) | 25 (≈ 66.9 µM) |  | 100 (≈ 267 µM) | 100 (≈ 267 µM) | 100 (≈ 267 µM) | 100 (≈ 267 µM) | 100 (≈ 267 µM) | 25 (≈ 66.9 µM) | 32.1 |
| COc1ccc(OC)c(/C=C/c2nnc(Nc3ccc(C)cc3)s2)c1 | 200 (≈ 566 µM) | 100 (≈ 283 µM) | 50 (≈ 141 µM) | 50 (≈ 141 µM) |  | 100 (≈ 283 µM) | 100 (≈ 283 µM) | 100 (≈ 283 µM) | 100 (≈ 283 µM) | 100 (≈ 283 µM) | 100 (≈ 283 µM) |  |
| CC1(C)S[C@@H]2[C@H](NC(=O)[C@H](N)c3ccccc3)C(=O)N2[C@H]1C(=O)O.O.O.O [AMPICILLIN TRIHYDRATE] |  | 10 |  |  |  |  | 50 |  | 12.5 |  | 5 |  |
| Clc1ccccc1C(c1ccccc1)(c1ccccc1)n1ccnc1 [CLOTRIMAZOLE] |  |  |  | 5 (≈ 14.5 µM) |  |  |  |  |  |  |  |  |
